Measurements taken from the PolyMetriX glass transition set.

`*O[Si](*)(C)CCCCCCCCCCC(=O)Oc1ccc(C(=O)Oc2ccc(-c3ccc(OC(=O)c4ccc(OCC(C)CC)cc4)cc3)cc2)cc1` (repeat unit) showed a glass transition temperature of 74.30 °C.
With `*c1ccc(-c2ccc(-c3nc4ccc(-c5ccc6nc(*)c(-c7ccccc7)c(-c7ccccc7)c6c5)cc4c(-c4ccccc4)c3-c3ccccc3)cc2)cc1` (repeat unit) the glass transition temperature was 420.00 °C.
`*CC(COCC)O*` (repeat unit) gave a glass transition temperature of -61.00 °C.
Work on `*OC1CCC(OC(=O)OCCCCCOC(*)=O)CC1` (repeat unit) yielded a glass transition temperature of -5.00 °C.
With `*c1cc(C(=O)NCCCCCCCCCCCC)cc(N2C(=O)c3ccc(-c4ccc5c(c4)C(=O)N(*)C5=O)cc3C2=O)c1` (repeat unit) the glass transition temperature was 243.10 °C.
Work on `*O[Si](*)(C)CCCCCCCCCCCOC(=O)c1cc(OC(=O)c2ccc(OCCOCCOCCOCCOCCOCCOCCOCCOC)cc2)ccc1OC(=O)c1ccc(OCCOCCOCCOCCOCCOCCOCCOCCOC)cc1` (repeat unit) yielded a glass transition temperature of -56.00 °C.
Compound `*Nc1cccc(NC(=O)CCCCCCCCC(=O)Nc2ccc(C(=O)NC(*)=S)cc2)c1` (repeat unit) has a glass transition temperature of 265.00 °C.
For `*Oc1ccc(NC(=O)c2cccc(C(=O)Nc3ccc(Oc4ccc(C(=O)c5ccc(*)cc5)cc4)cc3)c2)cc1` (repeat unit), the glass transition temperature was 145.00 °C.
For `*c1ccc2c(c1)C(=O)N(c1cc(C(=O)Nc3c(C)cc(-c4cc(C)c(NC(=O)c5ccc(C)c(N6C(=O)c7ccc(C(*)(C(F)(F)F)C(F)(F)F)cc7C6=O)c5)c(C)c4)cc3C)ccc1C)C2=O` (repeat unit), the glass transition temperature was 250.00 °C.
Compound `*c1ccc(Oc2ccc(/C=C/c3ccc(Oc4ccc(-c5nnc(*)o5)cc4)c4ccccc34)cc2)cc1` (repeat unit) has a glass transition temperature of 213.00 °C.
For `*CC(C)(C)C1C(=O)N(c2c(C)cccc2C)C(=O)C1*` (repeat unit), the glass transition temperature was 237.00 °C.
`*C1C(=O)N(CCCCCCCOc2ccc(-c3ccc(C#N)cc3)cc2)C(=O)C1*` (repeat unit) showed a glass transition temperature of 61.00 °C.
`*/C=C/c1ccc(*)c(OCc2cc(OCc3cc(OCCC(C)CCCC(C)C)cc(OCCC(C)CCCC(C)C)c3)cc(OCc3cc(OCC(CC)CCCC)cc(OCC(CC)CCCC)c3)c2)c1` (repeat unit) showed a glass transition temperature of 223.00 °C.
`*Oc1ccc(S(=O)(=O)c2ccc(Oc3c(C)cc(C(c4cc(C)c(*)c(C)c4)(C(F)(F)F)C(F)(F)F)cc3C)c(Br)c2)cc1Br` (repeat unit) gave a glass transition temperature of 230.80 °C.
Compound `*CCCC(C)(C)CNC(=O)c1ccc(C(=O)N*)cc1` (repeat unit) has a glass transition temperature of 157.00 °C.
For `*CC(CCCCCCOc1ccc(/N=N/c2ccc(Cl)cc2)cc1)COC(=O)CCCCC(=O)O*` (repeat unit), the glass transition temperature was 9.00 °C.
Compound `*OP(=O)(Oc1c(Cl)cc(Cl)cc1Cl)Oc1c(Cl)c(Cl)c(*)c(Cl)c1Cl` (repeat unit) has a glass transition temperature of 127.00 °C.
For `*c1ccc2c(c1)C(=O)N(c1cccc(C(c3cccc(N4C(=O)c5ccc(C(*)(C(F)(F)F)C(F)(F)F)cc5C4=O)c3)(C(F)(F)F)C(F)(F)F)c1)C2=O` (repeat unit), the glass transition temperature was 263.00 °C.
For `*/C=C/C1CC(*)C2C(=O)N(CCCCCC)C(=O)C12` (repeat unit), the glass transition temperature was 87.00 °C.
`*Oc1ccc(OC(=O)c2cc(/N=N/c3ccc(OCC)cc3)ccc2-c2ccc(/N=N/c3ccc(OCC)cc3)cc2C(*)=O)cc1` (repeat unit) showed a glass transition temperature of 170.00 °C.
`*CC(C[N-][N+]#N)O*` (repeat unit) gave a glass transition temperature of -35.00 °C.
Compound `*CC(C)(C)C1C(=O)N(C2CCCCC2)C(=O)C1*` (repeat unit) has a glass transition temperature of 192.00 °C.
`*C(=O)c1ccc2c(c1)C(=O)N(c1cccc(Oc3cccc(Oc4cccc(N5C(=O)c6ccc(*)cc6C5=O)c4)c3)c1)C2=O` (repeat unit) gave a glass transition temperature of 211.00 °C.
`*CCCCCOC(=O)CCCCC(=O)O*` (repeat unit) showed a glass transition temperature of -69.00 °C.
For `*CCCCCCOC(=O)C(CCCCCBr)C(=O)OCCCCCCOc1ccc(-n2on2-c2ccc(O*)cc2)cc1` (repeat unit), the glass transition temperature was 7.00 °C.
Work on `*CCOc1ccc(/C=C2\CC/C(=C\c3ccc(OCCOP(=O)(O*)OC)c(OC)c3)C2=O)cc1OC` (repeat unit) yielded a glass transition temperature of 99.00 °C.
`*CC(C)C(=O)O*` (repeat unit) showed a glass transition temperature of -25.00 °C.
Compound `*Oc1ccc(Oc2ccc(NC(=O)c3ccc(Oc4ccc(Oc5ccc(C(=O)Nc6ccc(*)cc6)cc5)cc4-c4ccccc4)cc3)cc2)cc1` (repeat unit) has a glass transition temperature of 209.00 °C.
With `*c1ccc(Oc2ccc(N3C(=O)c4ccc(-c5cccc6c5C(=O)N(*)C6=O)cc4C3=O)cc2)cc1` (repeat unit) the glass transition temperature was 320.00 °C.
With `*CC(*)C(=O)OCC(C)CC` (repeat unit) the glass transition temperature was -32.00 °C.
`*CCCCCCCCOc1ccc(NC(=O)c2cccc(C(=O)Nc3ccc(O*)cc3)c2)cc1` (repeat unit) gave a glass transition temperature of 128.00 °C.
`*C(=O)OCCN(CCOC(=O)c1ccc2c(c1)C(=O)N(c1c(C)cc(Cc3cc(C)c(N4C(=O)c5ccc(*)cc5C4=O)c(C)c3)cc1C)C2=O)c1ccc(/N=N/c2ccc([N+](=O)[O-])cc2)cc1` (repeat unit) showed a glass transition temperature of 179.00 °C.
With `*c1cccc(Oc2cccc(Oc3cccc(-n4c(=O)c5cc6c(=O)n(*)c(=O)c6cc5c4=O)c3)c2)c1` (repeat unit) the glass transition temperature was 221.00 °C.
Compound `*CC(*)(C)C(=O)OCCCCOc1ccc(C(=O)Oc2ccc(OC)cc2)cc1` (repeat unit) has a glass transition temperature of 45.00 °C.
`*CC(*)(C)C(=O)OCCOC` (repeat unit) gave a glass transition temperature of 24.00 °C.
With `*c1ccc(Oc2ccc(N3C(=O)c4ccc(Oc5ccc6c(c5)C(=O)N(c5ncc(*)s5)C6=O)cc4C3=O)cc2)cc1` (repeat unit) the glass transition temperature was 300.00 °C.
In the case of `*N=P(*)(C)c1ccccc1` (repeat unit), the glass transition temperature is reported as 37.00 °C.
`*Oc1ccc(OC(=O)c2ccc(OCCCCCCCCCCCCOc3ccc(C(*)=O)cc3)cc2)cc1S(=O)(=O)c1ccccc1` (repeat unit) showed a glass transition temperature of 82.70 °C.
With `*c1ccc(Oc2ccc(-c3nc4cc(Oc5ccc(NC(=O)c6cc(C(=O)Nc7ccc(Oc8ccc9nc(-c%10ccccc%10)c(*)nc9c8)cc7)cc(N7C(=O)c8ccccc8C7=O)c6)cc5)ccc4nc3-c3ccccc3)cc2)cc1` (repeat unit) the glass transition temperature was 260.00 °C.
In the case of `*CCN(*)C(=O)c1cc(F)ccc1F` (repeat unit), the glass transition temperature is reported as 112.00 °C.
Compound `*Oc1ccc(OC(=O)c2ccc(C(*)=O)cc2)cc1-c1cccc(C(F)(F)F)c1` (repeat unit) has a glass transition temperature of 155.80 °C.
With `*Oc1ccc(C2(c3ccc(OC(*)=S)cc3)CCCCC2)cc1` (repeat unit) the glass transition temperature was 155.00 °C.
With `*/C(C#N)=C/c1cc(OCCCCCCCCCCCCCCCC)c(/C=C(\C#N)c2cc(OCCCCCCCCCCCCCCCC)c(*)cc2OC)cc1OC` (repeat unit) the glass transition temperature was 190.00 °C.
`*C(=O)Nc1ccc(Oc2ccc(NC(=O)c3ccc(N4C(=O)c5ccc(*)cc5C4=O)cc3)cc2)cc1` (repeat unit) showed a glass transition temperature of 296.00 °C.
`*c1ccc(Nc2ccc(C3(c4ccc(Nc5ccc(S(*)(=O)=O)cc5)c(C)c4)c4ccccc4-c4ccccc43)cc2C)cc1` (repeat unit) showed a glass transition temperature of 269.00 °C.
`*c1cccc(P(=O)(c2ccccc2)c2cccc(-n3c(=O)c4c(-c5ccc(C(F)(F)F)cc5)c5c(=O)n(*)c(=O)c5c(-c5ccc(C(F)(F)F)cc5)c4c3=O)c2)c1` (repeat unit) showed a glass transition temperature of 334.00 °C.
